≈ marks a conversion by molar mass, not a printed value. Calls of active or inactive are those of the source. The calls are words filed in the database; no cut-off is given here.
How the values were obtained:
[1] = Unbound fraction in mouse; assay type: ADME, organism-based; settings: in vivo
[2] = AUC (0 to 24 hrs) in rat at 10 mg/kg, ip; assay type: ADME, organism-based; design: dose 10 mg/kg, time < 24 hr, route intraperitoneal; settings: in vivo
[3] = Cmax in rat at 10 mg/kg, ip; assay type: ADME, organism-based; design: dose 10 mg/kg, route intraperitoneal; settings: in vivo
[4] = Ratio of drug level in brain to plasma in mouse at 10 mg/kg, ip after 30 mins; assay type: ADME, organism-based; settings: read-out: BPR
[5] = target: Metabotropic glutamate receptor 1 (Homo sapiens, UniProt Q13255); assay: Antagonist activity at recombinant human mGlu1 receptor expressed in hamster AV12 cells coexpressing human EAAT1/Galpha1s assessed as inhibition of Ca2+ flux by Fluo-3-AM dye based FLIPR assay; assay type: functional, cell-based
[6] = target: T1, Metabotropic glutamate receptor 2 (Homo sapiens, UniProt Q14416); assay: Antagonist activity at recombinant human mGlu2 receptor expressed in hamster AV12 cells co-expressing human EAAT1 assessed as reduction of DCG-4-inhibited forskolin-stimulated cAMP formation after 20 mins by HTRF assay; assay type: functional, cell-based
[7] = target: T1, Metabotropic glutamate receptor 2; assay: Antagonist activity at recombinant human mGlu2 receptor expressed in hamster AV12 cells assessed as inhibition of DCG-4-inhibited forskolin-stimulated cAMP formation up to 25 uM after 20 min by HTRF assay relative to control; assay type: functional, cell-based
Target sequence in this assay (Q14416 19-872 limits assumed): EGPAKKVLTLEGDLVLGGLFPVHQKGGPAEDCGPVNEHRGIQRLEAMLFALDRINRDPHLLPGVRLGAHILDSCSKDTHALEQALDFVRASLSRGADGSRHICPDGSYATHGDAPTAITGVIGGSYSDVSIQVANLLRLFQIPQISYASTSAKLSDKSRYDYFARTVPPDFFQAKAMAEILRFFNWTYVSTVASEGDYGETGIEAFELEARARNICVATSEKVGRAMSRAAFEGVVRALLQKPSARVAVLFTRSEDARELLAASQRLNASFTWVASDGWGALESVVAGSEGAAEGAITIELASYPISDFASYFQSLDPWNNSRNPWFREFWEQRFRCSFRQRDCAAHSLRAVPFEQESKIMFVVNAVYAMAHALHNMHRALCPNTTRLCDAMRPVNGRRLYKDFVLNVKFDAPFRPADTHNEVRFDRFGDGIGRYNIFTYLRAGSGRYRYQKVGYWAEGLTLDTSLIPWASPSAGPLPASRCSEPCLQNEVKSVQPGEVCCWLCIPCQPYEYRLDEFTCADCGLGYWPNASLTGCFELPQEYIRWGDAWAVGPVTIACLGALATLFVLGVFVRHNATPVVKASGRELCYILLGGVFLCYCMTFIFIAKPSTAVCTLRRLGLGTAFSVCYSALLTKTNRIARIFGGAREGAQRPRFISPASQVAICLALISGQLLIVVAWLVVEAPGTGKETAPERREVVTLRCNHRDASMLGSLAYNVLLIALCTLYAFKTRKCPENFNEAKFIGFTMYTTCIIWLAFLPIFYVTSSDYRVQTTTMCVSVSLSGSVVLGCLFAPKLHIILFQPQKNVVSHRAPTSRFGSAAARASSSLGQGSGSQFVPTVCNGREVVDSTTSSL

[8] = target: T1, Metabotropic glutamate receptor 2; assay: Agonist activity at recombinant human mGlu2 receptor expressed in hamster AV12 cells co-expressing human EAAT1 assessed as increase in forskolin-stimulated cAMP formation up to 25 uM after 20 mins by HTRF assay; assay type: functional, cell-based
Target sequence in this assay (Q14416 whole entry): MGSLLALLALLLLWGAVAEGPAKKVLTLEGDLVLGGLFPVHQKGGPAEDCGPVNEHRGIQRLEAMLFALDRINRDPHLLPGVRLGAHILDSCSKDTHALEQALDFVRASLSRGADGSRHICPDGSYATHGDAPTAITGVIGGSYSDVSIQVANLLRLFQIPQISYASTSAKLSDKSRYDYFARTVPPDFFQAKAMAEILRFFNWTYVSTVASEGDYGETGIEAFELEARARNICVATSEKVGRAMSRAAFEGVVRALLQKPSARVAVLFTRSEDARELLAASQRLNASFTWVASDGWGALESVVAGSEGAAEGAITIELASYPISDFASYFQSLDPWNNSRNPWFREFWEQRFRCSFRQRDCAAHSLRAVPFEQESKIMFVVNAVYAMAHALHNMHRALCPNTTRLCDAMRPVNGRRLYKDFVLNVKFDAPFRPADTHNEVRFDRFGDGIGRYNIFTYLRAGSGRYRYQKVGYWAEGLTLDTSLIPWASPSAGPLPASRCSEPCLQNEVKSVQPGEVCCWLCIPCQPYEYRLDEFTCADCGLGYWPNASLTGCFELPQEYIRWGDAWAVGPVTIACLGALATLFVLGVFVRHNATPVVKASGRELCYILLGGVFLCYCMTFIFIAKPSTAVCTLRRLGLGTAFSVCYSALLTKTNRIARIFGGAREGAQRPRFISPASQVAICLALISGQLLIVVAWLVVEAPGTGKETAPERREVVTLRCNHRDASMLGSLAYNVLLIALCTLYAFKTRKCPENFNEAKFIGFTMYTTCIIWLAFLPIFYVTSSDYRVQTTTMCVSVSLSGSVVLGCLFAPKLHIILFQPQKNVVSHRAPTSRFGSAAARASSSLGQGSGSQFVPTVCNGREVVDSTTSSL

[9] = target: Metabotropic glutamate receptor 3 (Homo sapiens, UniProt Q14832); assay: Agonist activity at recombinant human mGlu3 receptor expressed in hamster AV12 cells co-expressing human EAAT1 assessed as increase in forskolin-stimulated cAMP formation up to 25 uM after 20 mins by HTRF assay; assay type: functional, cell-based
[10] = target: T2, Metabotropic glutamate receptor 4 (Homo sapiens, UniProt Q14833); assay: Antagonist activity at recombinant human mGlu4 receptor expressed in hamster AV12 cells co-expressing human EAAT1/Galpha1s assessed as inhibition of Ca2+ flux by Fluo-3-AM dye based FLIPR assay; assay type: functional, cell-based
T2 sequence (Q14833 whole entry): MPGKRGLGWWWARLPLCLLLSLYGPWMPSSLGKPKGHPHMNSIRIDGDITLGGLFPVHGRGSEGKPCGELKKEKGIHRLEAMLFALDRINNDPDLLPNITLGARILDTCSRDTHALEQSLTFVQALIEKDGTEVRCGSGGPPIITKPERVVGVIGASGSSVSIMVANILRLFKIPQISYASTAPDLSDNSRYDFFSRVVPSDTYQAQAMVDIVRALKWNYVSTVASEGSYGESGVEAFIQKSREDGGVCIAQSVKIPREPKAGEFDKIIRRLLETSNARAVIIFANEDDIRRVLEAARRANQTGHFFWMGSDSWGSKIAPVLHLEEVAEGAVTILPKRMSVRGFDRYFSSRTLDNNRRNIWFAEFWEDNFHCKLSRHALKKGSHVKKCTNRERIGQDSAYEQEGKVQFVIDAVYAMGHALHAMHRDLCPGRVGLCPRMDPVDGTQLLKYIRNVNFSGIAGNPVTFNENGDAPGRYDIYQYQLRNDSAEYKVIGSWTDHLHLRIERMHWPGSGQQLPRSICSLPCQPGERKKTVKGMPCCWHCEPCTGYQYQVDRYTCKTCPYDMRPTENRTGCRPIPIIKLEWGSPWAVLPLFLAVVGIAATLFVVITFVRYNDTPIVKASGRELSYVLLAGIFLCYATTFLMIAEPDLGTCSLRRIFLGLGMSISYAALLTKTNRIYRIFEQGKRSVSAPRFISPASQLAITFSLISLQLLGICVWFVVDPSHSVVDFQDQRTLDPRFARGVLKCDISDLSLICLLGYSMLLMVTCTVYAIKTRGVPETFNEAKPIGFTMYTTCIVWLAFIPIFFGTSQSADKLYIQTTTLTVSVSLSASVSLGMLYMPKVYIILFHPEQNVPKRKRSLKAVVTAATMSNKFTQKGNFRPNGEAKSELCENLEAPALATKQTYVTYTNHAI

[11] = target: T2, Metabotropic glutamate receptor 4; assay: Agonist activity at recombinant human mGlu4 receptor expressed in hamster AV12 cells co-expressing human EAAT1/Galpha1s assessed as increase in Ca2+ flux by Fluo-3-AM dye based FLIPR assay; assay type: functional, cell-based
[12] = target: Metabotropic glutamate receptor 5 (Homo sapiens, UniProt P41594); assay: Agonist activity at recombinant human mGlu5 receptor expressed in hamster AV12 cells co-expressing human EAAT1/Galpha1s assessed as increase in Ca2+ flux by Fluo-3-AM dye based FLIPR assay; assay type: functional, cell-based
[13] = target: Metabotropic glutamate receptor 6 (Homo sapiens, UniProt O15303); assay: Agonist activity at recombinant human mGlu6 receptor expressed in hamster AV12 cells co-expressing EAAT1 assessed as induction of forskolin-stimulated cAMP formation after 20 mins by HTRF assay; assay type: functional, cell-based
Metabotropic glutamate receptor 6, sequence (O15303 whole entry): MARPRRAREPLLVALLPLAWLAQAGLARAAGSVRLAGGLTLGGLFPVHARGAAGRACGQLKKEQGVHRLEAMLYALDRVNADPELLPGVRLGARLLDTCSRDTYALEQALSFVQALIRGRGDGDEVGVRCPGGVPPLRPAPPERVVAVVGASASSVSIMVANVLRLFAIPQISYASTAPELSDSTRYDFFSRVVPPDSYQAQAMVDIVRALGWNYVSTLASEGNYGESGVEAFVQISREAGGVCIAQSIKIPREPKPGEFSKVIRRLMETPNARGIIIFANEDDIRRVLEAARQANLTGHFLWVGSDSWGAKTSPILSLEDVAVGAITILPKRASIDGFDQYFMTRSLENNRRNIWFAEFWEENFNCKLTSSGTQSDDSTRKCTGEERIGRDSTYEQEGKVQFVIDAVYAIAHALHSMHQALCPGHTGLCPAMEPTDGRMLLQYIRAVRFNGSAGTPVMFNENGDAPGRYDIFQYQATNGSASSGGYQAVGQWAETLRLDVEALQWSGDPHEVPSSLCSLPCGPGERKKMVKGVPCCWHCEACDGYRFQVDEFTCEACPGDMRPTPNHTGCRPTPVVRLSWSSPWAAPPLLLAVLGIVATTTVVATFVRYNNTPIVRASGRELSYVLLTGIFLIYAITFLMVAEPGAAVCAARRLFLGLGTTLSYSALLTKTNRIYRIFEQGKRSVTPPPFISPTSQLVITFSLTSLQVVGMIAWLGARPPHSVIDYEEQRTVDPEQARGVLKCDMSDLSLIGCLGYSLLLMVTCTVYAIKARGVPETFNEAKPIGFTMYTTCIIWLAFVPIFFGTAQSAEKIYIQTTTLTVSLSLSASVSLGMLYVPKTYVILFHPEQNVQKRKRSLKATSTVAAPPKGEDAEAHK

[14] = target: Metabotropic glutamate receptor 8 (Homo sapiens, UniProt O00222); assay: Agonist activity at recombinant human mGlu8 receptor expressed in hamster AV12 cells co-expressing human EAAT1 assessed as induction of forskolin-stimulated cAMP formation after 20 mins by HTRF assay; assay type: functional, cell-based
hERG (KCNH2) = hERG (KCNH2) (Homo sapiens, UniProt Q12809); assay: Displacement of [3H]-Astemizole from human ERG at 100 uM by membrane binding assay; settings: membranes with human ERG, probe [3H]-Astemizole
[15] = Aqueous solubility of compound at pH 7.4; assay type: physicochemical; settings: aqueous medium
[16] = Permeability from apical side to basolateral side in MDCK cells at 20 uM; assay type: ADME, cell-based, Canis lupus familiaris; settings: dog
ABCB1 (P-gp) = ABCB1 (P-gp) (Homo sapiens, UniProt P08183); assay: Inhibition of human ABCB1 expressed in MDCK cells at 5 to 25 uM relative to control; assay type: ADME, cell-based; settings: MDCK-MDR1
ABCB1 (P-gp), sequence (P08183 whole entry): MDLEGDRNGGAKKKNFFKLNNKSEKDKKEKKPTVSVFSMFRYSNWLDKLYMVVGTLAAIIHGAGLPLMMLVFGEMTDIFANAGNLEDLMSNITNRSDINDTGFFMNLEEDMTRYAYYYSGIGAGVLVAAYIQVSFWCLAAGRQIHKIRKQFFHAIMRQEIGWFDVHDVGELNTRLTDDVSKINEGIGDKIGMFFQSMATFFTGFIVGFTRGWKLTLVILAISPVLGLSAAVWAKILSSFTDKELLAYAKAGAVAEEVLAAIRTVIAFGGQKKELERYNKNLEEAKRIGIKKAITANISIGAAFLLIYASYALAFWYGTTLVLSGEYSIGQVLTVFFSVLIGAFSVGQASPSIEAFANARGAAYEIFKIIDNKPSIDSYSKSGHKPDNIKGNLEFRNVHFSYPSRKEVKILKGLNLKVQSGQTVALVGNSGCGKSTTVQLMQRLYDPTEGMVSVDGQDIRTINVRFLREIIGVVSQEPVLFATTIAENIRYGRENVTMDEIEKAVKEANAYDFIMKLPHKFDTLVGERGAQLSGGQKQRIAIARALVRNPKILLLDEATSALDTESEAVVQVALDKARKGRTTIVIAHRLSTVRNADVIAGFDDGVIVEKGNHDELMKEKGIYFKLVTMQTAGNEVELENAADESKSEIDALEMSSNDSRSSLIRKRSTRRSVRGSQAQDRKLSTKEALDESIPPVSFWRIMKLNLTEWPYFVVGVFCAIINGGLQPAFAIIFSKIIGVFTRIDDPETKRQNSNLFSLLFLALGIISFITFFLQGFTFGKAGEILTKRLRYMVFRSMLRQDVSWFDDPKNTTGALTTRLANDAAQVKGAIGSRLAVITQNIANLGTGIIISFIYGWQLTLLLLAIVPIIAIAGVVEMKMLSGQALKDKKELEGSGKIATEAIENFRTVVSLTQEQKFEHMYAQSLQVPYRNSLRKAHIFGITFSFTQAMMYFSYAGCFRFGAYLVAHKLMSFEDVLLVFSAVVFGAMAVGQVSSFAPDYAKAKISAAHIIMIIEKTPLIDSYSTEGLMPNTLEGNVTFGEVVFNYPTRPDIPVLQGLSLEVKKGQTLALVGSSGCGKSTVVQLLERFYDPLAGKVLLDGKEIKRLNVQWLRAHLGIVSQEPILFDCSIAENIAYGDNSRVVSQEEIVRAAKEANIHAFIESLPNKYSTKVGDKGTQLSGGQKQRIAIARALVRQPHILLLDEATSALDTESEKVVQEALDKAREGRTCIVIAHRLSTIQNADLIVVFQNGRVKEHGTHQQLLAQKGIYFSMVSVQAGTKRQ

[17] = Drug metabolism in rat microsomes at 4 uM after 30 mins; assay type: ADME, Microsome; settings: read-out: Drug metabolism
[18] = Drug metabolism in dog microsomes at 4 uM after 30 mins; assay type: ADME, Canis lupus familiaris, Microsome; settings: read-out: Drug metabolism
[19] = Drug metabolism in monkey microsomes at 4 uM after 30 mins; assay type: ADME, Macaca mulatta, Microsome; settings: rhesus monkey, read-out: Drug metabolism
CYP2C9 = CYP2C9 (Homo sapiens, UniProt P11712); assay: Inhibition of human CYP2C9 at 10 uM; assay type: ADME
CYP2D6 = CYP2D6 (Homo sapiens, UniProt P10635); assay: Inhibition of human CYP2D6 at 10 uM; assay type: ADME
[20] = target: Voltage-gated inwardly rectifying potassium channel KCNH2 (Homo sapiens, UniProt Q12809); assay: Displacement of [3H]-Astemizole from human ERG by membrane binding assay
[21] = Cmax in rat at 1 mg/kg, iv; assay type: ADME, organism-based; design: dose 1 mg/kg, route intravenous; settings: in vivo
[22] = Volume of distribution at steady state in rat at 1 mg/kg, iv; assay type: ADME, organism-based; settings: in vivo, read-out: Vdss
[23] = AUC (0 to 24 hrs) in rat at 5 mg/kg, po; assay type: ADME, organism-based; design: time < 24 hr, dose 5 mg/kg, route oral; settings: in vivo
[24] = Tmax in rat at 5 mg/kg, po; assay type: ADME, organism-based; settings: in vivo
[25] = Antidepressant activity in ip dosed NIH Swiss Webster mouse assessed as reduction in immobility time administered 30 mins prior to evaluation measured on the last 4 mins of the 6 mins observation time by forced swim test; assay type: functional, organism-based
[26] = Plasma concentration in NIH Swiss Webster mouse at 1 mg/kg, ip at 30 mins; assay type: ADME, organism-based
[27] = Drug uptake in NIH Swiss Webster mouse brain at 1 mg/kg, ip at 30 mins; assay type: ADME, organism-based; settings: read-out: Drug uptake
[28] = Plasma concentration in NIH Swiss Webster mouse at 3 mg/kg, ip at 30 mins; assay type: ADME, organism-based
[29] = Drug uptake in NIH Swiss Webster mouse brain at 3 mg/kg, ip at 30 mins; assay type: ADME, organism-based; settings: read-out: Drug uptake
[30] = Plasma concentration in NIH Swiss Webster mouse at 0.3 mg/kg, ip at 30 mins; assay type: ADME, organism-based
Rattus norvegicus = assay: Toxicity in rat assessed as NREM sleep at 3 to 10 mg/kg, ip; assay type: organism-based; settings: in vivo
[31] = Antidepressant activity in NIH Swiss Webster mouse assessed as immobility time at 0.3 mg/kg, ip administered 30 mins prior to test measured during last 4 mins of the 6 mins observation time by forced swim test (reference value: 142 sec); assay type: functional, organism-based
[32] = Antidepressant activity in NIH Swiss Webster mouse assessed as immobility time at 1 mg/kg, ip administered 30 mins prior to test measured during last 4 mins of the 6 mins observation time by forced swim test (reference value: 142 sec); assay type: functional, organism-based
[33] = Antidepressant activity in NIH Swiss Webster mouse assessed as immobility time at 3 mg/kg, ip administered 30 mins prior to test measured during last 4 mins of the 6 mins observation time by forced swim test (reference value: 142 sec); assay type: functional, organism-based
[34] = Antidepressant activity in rat assessed as increase in wakefulness at 3 to 10 mg/kg, ip

fraction unbound [1]: 0.56
AUC(0-t) at 24 h [2]: 116 µM·h
Cmax [3]: 48.1 µM
Kp at 0.5 h [4]: 0.015
IC50 [5]: > 12.5 µM
IC50 [6]: 46 nM
Imax [6]: > 94%
inhibition [7]: Active
EC50 [8]: > 25 µM
EC50 [9]: > 25 µM
IC50 [10]: > 12.5 µM
EC50 [11]: > 25 µM
EC50 [12]: > 25 µM
EC50 [13]: > 12.5 µM
EC50 [14]: > 50 µM
solubility [15]: 778 µg/mL (≈ 2070 µM)
permeability [16]: 2%
inhibition (ABCB1 (P-gp)): < 1%
metabolised at 0.5 h, 4 µM [17]: < 20%
metabolised at 0.5 h, 4 µM [18]: < 20%
metabolised at 0.5 h, 4 µM [19]: < 20%
inhibition at 10 µM (CYP2C9): < 5%
inhibition at 10 µM (CYP2D6): < 5%
Cmax [21]: 33.9 µM
Vd [22]: 0.589 L/kg
AUC [23]: 1783 nM·h
Tmax [24]: 1.67 h
concentration at 0.5 h [26]: 4.81 µM
concentration at 0.5 h [27]: 72 nM
concentration at 0.5 h [28]: 16.5 µM
concentration at 0.5 h [29]: 248 nM
concentration at 0.5 h [30]: 1290 nM
SMILES: N[C@]1(C(=O)O)[C@@H]2[C@@H](C(=O)O)[C@@H]2[C@H](O)[C@H]1OCc1ccc(Cl)c(Cl)c1
inhibition at 100 µM (hERG (KCNH2)): 13%
Ki [20]: > 100 µM
ED60 [25]: 0.72 mg/kg
MED [25]: 1 mg/kg
Activity (Rattus norvegicus): Non-Toxic
TIME [31]: 0.0394 h
TIME [32]: 0.0272 h
TIME [33]: 0.0167 h
Activity [34]: Active
